In PubChem BioAssay AID1918956 (Molecular Pharmacology Branch, DTP, NCI, 2023):
Values joined by “and” are separate entries in the source; they are usually repeats but may differ in a detail not shown here. Equal values may be shown once.

Test system: OVCAR-5 complex spheroids, viability
Assay: Anticancer human tumor OVCAR-5 cell line growth inhibition;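 also: spheroids exposed to agents for seven days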;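 as to viability, T/C: 100% = DMSO vehicle control wells viability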
Conditions: for viability, T/C: stronger effect = lower value
From the text: Multicellular complex tumor spheroid response to LSD1 Inhibitor Iadademstat in combination with a variety of drugs and investigational agents in selected tumor cell lines
The current study was undertaken to assess response to LSD1 inhibitors in combination with standard-of-care drugs and investigational agents in solid tumor complex spheroid models as well as in the K-562 leukemia. Complex spheroids include a stromal component modeled by human endothelial cells (HUVEC) and fibroblasts modeled by human mesenchymal stem cells (MSCs). The concentration ranges selected for each drug and investigational agent were based upon clinically achievable concentrations if the clinical Cmax of the agent was known.
Compounds. The drugs and investigational agents used in this study are listed on Table 1. All of the agents used, including staurosporine (NSC755774) and gemcitabine (NSC613327), were obtained from the Developmental Therapeutics Program, NCI. FDA-approved anticancer drugs are available from the NCI at http://dtp.nci.nih.gov/branches/dscb/oncology_drugset_explanation.html. Drugs and investigational agents were >95% pure by proton nuclear magnetic resonance (NMR) and liquid chromatography/mass spectrometry (LC/MS). Stock solutions were prepared at 400x in DMSO, stored at -70 degrees C, and diluted in fresh medium prior to their use. The final concentration of DMSO in cell culture wells never exceeded 0.25% (v/v). The FDA-approved anticancer drug set is available from the Developmental Therapeutics Program at https://dtp.cancer.gov/organization/dscb/obtaining/available_plates.htm. All drugs and investigational agents were tested over a range starting from a high concentration at or near the clinical Cmax and decreasing in half-log increments. If the clinical Cmax for an agent had not been determined, the highest concentration tested was 10 microM.
Cell Lines. The patient-derived cancer cell (PDC) lines: 292921-168-R-J2-PDC, K24384-001-R-PDC, and 521955-158-R2-J5-PDC pancreatic carcinomas, 556581-035-R-J1 ovarian carcinoma, 324938-238-R-J1-PDC, 855422-203-R-J1-PDC and 883617-216-R-J1-PDC urothelial bladder carcinomas, 743489-274-T-PDC renal cell carcinoma, 138582-R-J1 Merkel cell tumor, K60290-347-R-J1 and K57222-313-R-J1-PDC glioblastomas, 653999-131-R-J2-PDC, LG0703-F948-PDC, and 349418-098-R-PDC non-small cell lung carcinomas, 885512-296-R-J2-PDC, 171881-019-R-J1-PDC breast carcinomas and 186277-243-T-J2-PDC and 233499-124-R-J2-PDC colon carcinomas were obtained from the NCI Patient-Derived Models Repository (PDMR, https://pdmr.cancer.gov). The established cell lines NCI/ADR-RES (RRID:CVCL_14520 and OVCAR-5 (RRID:CVCL_1628) ovarian carcinomas, 786-O (RRID:CVCL_1051) and A498 […] renal cell carcinoma, NCI-H211 (ATCC, cat. CRL-5824; RRID:CVCL_1529), NCI-H196 (ATCC, cat. CRL-5823, RRID:CVCL_1509), SW 1271 (ATCC, cat. CRL-2177, RRID:CVCL_1716) and NCI-H1876 (ATCC, cat. CRL-5902, RRID:CVCL_1503) small cell lung carcinomas, MDA-MB-231 (RRID:CVCL_0062) and MDA-MB-468 (RRID:CVCL_0419)breast carcinomas (10-12). Pooled donor human umbilical vein endothelial cells (HUVEC, Lonza, cat. CC-2519) and human mesenchymal stem cells (hMSC, Lonza, cat. PT-2501) were purchased from Lonza (Walkersville, MD).
Cell Culture. All cells were maintained in an incubator at 37 degrees C and 5% CO2 with 95% humidity. The PDC lines were cultured according to standard operating procedures established by the NCI PDMR (https://pdmr.cancer.gov). Briefly all PDCs were thawed and cultured in Matrigel-coated flasks prepared with a working solution of 1X Ham's F-12 nutrient mix, without supplementation (Invitrogen, Waltham, MA, cat. 11765054), 100 U/mL penicillin-streptomycin (Invitrogen, cat. 15140122), and 2.5% Matrigel (Corning Inc., Corning, NY, cat. 354248) for the first three passages. […]

For `CC(C)c1c(-c2ccccc2)nc2c(C#N)c[nH]n2c1=O`, the viability, T/C (compound 0.0316 µM) was 117% and 105%, the viability, T/C (compound 0.1 µM) was 108% and 94.7% and the viability, T/C (compound 0.316 µM) was 107% and 104%. For the same molecule, the viability, T/C (compound 1 µM) was 107% and 102%, the viability, T/C (compound 3.16 µM) was 117% and 104% and the viability, T/C (compound 10 µM) was 104% and 100%. The IC50 (curve of compound) was > 10000 nM.
For `CC1(C)CCC(CN2CCN(c3ccc(C(=O)NS(=O)(=O)c4ccc(NCC5CCOCC5)c([N+](=O)[O-])c4)c(Oc4cnc5[nH]ccc5c4)c3)CC2)=C(c2ccc(Cl)cc2)C1`, the viability, T/C (compound 0.0316 µM) was 98% and 105%, the viability, T/C (compound 0.1 µM) was 101% and 98.1% and the viability, T/C (compound 0.316 µM) was 95.8% and 105%. The viability, T/C (compound 1 µM) was 107% and 105%, the viability, T/C (compound 3.16 µM) was 107% and 103% and the viability, T/C (compound 10 µM) was 33.7% and 40.2%. For the same molecule, the IC50 (curve of compound) was 7590 nM and 8360 nM.
For `CC1COCCN1c1cc(C2(S(C)(=N)=O)CC2)nc(-c2ccnc3[nH]ccc23)n1` (configuration not stated), the viability, T/C (compound 0.0316 µM) was 106% and 102%, the viability, T/C (compound 0.1 µM) was 110% and 101% and the viability, T/C (compound 0.316 µM) was 90.1% and 76%. The viability, T/C (compound 1 µM) was 57.5% and 48.9%, the viability, T/C (compound 3.16 µM) was 41.4% and 34.1% and the viability, T/C (compound 10 µM) was 35.5% and 25.4%. For the same molecule, the IC50 (curve of compound) was 1640 nM and 957 nM.
In the case of `CCN(c1cc(-c2ccc(CN3CCOCC3)cc2)cc(C(=O)NCc2c(C)cc(C)[nH]c2=O)c1C)C1CCOCC1`, the viability, T/C (compound 0.00949 µM) is reported as 101% and 110%, the viability, T/C (compound 0.03 µM) is reported as 102% and 107% and the viability, T/C (compound 0.0949 µM) is reported as 104% and 103%. The viability, T/C (compound 0.3 µM) was 102% and 97.2%, the viability, T/C (compound 0.949 µM) was 98.4% and 103% and the viability, T/C (compound 3 µM) was 100% and 109%. For the same molecule, the IC50 (curve of compound) was > 3000 nM.
`COc1ccc([C@@H](O)c2cc(-c3ncnc4cc(N5CCOCC5)ccc34)c(F)cc2Cl)nn1` was tested, and the viability, T/C (compound 0.0316 µM) was 92.1% and 91.6%, the viability, T/C (compound 0.1 µM) was 91.6% and 84.7% and the viability, T/C (compound 0.316 µM) was 73.3% and 58.1%. The viability, T/C (compound 1 µM) was 55.4% and 44.1%, the viability, T/C (compound 3.16 µM) was 45.3% and 32.7% and the viability, T/C (compound 10 µM) was 24.9% and 18.4%. The IC50 (curve of compound) was 1790 nM and 690 nM.
With `NC1CC1c1ccc(-c2cccc(O)c2)cc1` (configuration not stated) the viability, T/C (compound 10 µM) was 89.8% [middle of 25 runs] and the IC50 (compound alone, run of 12/07/2021) was > 10000 nM.
For `NC1CCC(NC2CC2c2ccccc2)CC1` (configuration not stated), the viability, T/C (compound 0.1 µM) was 102% [middle of 25 runs], the viability, T/C (compound 0.316 µM) was 119% and 98.5% and the IC50 (compound alone, run of 11/29/2021) was > 10000 nM.
For `O=C(c1cc(Cc2n[nH]c(=O)c3ccccc23)ccc1F)N1CCN(C(=O)C2CC2)CC1`, the viability, T/C (compound 0.0316 µM) was 92.2% and 111%, the viability, T/C (compound 0.1 µM) was 109% and 98.7% and the viability, T/C (compound 0.316 µM) was 95.8% and 102%. For the same molecule, the viability, T/C (compound 1 µM) was 90.8% and 91.7%, the viability, T/C (compound 3.16 µM) was 87.7% and 73.7% and the viability, T/C (compound 10 µM) was 79.7% and 69.6%. The IC50 (curve of compound) was > 10000 nM.
`Nc1ncn(C2CC(O)C(CO)O2)c(=O)n1` (configuration not stated) + NC1CC1c1ccc(-c2cccc(O)c2)cc1 was tested, and the IC50 (curve of first compound, second compound 0.1 µM) was > 1000 nM, the IC50 (curve of first compound, second compound 0.316 µM) was > 1000 nM and the IC50 (curve of first compound, second compound 1 µM) was > 1000 nM. For the same molecule, the IC50 (curve of first compound, second compound 3.16 µM) was > 1000 nM, the IC50 (curve of first compound, second compound 10 µM) was > 1000 nM and the viability, T/C (second compound 0.1 µM, first compound 0.00316 µM) was 103%. It also gave a viability, T/C (second compound 0.1 µM, first compound 0.01 µM) of 98.5%, a viability, T/C (second compound 0.1 µM, first compound 0.0316 µM) of 83.4% and a viability, T/C (second compound 0.1 µM, first compound 0.1 µM) of 74.2%. The viability, T/C (second compound 0.1 µM, first compound 0.316 µM) was 68.2%, the viability, T/C (second compound 0.1 µM, first compound 1 µM) was 65.8% and the viability, T/C (second compound 0.316 µM, first compound 0.00316 µM) was 93.6%. For the same molecule, the viability, T/C (second compound 0.316 µM, first compound 0.01 µM) was 98.5%, the viability, T/C (second compound 0.316 µM, first compound 0.0316 µM) was 87.4% and the viability, T/C (second compound 0.316 µM, first compound 0.1 µM) was 70.5%. For the same molecule, the viability, T/C (second compound 0.316 µM, first compound 0.316 µM) was 70.2%, the viability, T/C (second compound 0.316 µM, first compound 1 µM) was 66.2% and the viability, T/C (second compound 1 µM, first compound 0.00316 µM) was 94.9%. For the same molecule, the viability, T/C (second compound 1 µM, first compound 0.01 µM) was 99.6%, the viability, T/C (second compound 1 µM, first compound 0.0316 µM) was 87.6% and the viability, T/C (second compound 1 µM, first compound 0.1 µM) was 66.1%. It also gave a viability, T/C (second compound 1 µM, first compound 0.316 µM) of 67.8%, a viability, T/C (second compound 1 µM, first compound 1 µM) of 66.7% and a viability, T/C (second compound 3.16 µM, first compound 0.00316 µM) of 89%. The viability, T/C (second compound 3.16 µM, first compound 0.01 µM) was 85.9%, the viability, T/C (second compound 3.16 µM, first compound 0.0316 µM) was 70.3% and the viability, T/C (second compound 3.16 µM, first compound 0.1 µM) was 72%. It also gave a viability, T/C (second compound 3.16 µM, first compound 0.316 µM) of 61.1%, a viability, T/C (second compound 3.16 µM, first compound 1 µM) of 64.5% and a viability, T/C (second compound 10 µM, first compound 0.00316 µM) of 83%. It also gave a viability, T/C (second compound 10 µM, first compound 0.01 µM) of 80.1%, a viability, T/C (second compound 10 µM, first compound 0.0316 µM) of 72% and a viability, T/C (second compound 10 µM, first compound 0.1 µM) of 60.3%. The viability, T/C (second compound 10 µM, first compound 0.316 µM) was 58% and the viability, T/C (second compound 10 µM, first compound 1 µM) was 61.2%.
